Test results: patent publication US20240173440A1, “HIGH PURITY COPPER RADIOPHARMACEUTICAL COMPOSITIONS AND DIAGNOSTIC AND THERAPEUTIC USES THEREOF” (Nuclidium AG, priority 2022, published 2024)

Assays:
PSMA [1] = molecular target: T1, PSMA (Homo sapiens (Human), UniProt Q04609); test: Competitive binding assay (IC50) on LNCaP cells with radioligand [125I-BA]KuE; conditions: 1 hour on ice, radioligand [^125I-BA]KuE 0.2 nM, mean ± SD
Procedure: In the case of the PSMA constructs, the radioiodinated ((S)-1-carboxy-5-(4-(-^125I-iodo-benzamido)pentyl)carbamoyl)-L-glutamic acid ([^125I-BA]KuE) was used as reference radioligand. The assay was performed on LNCaP cells seeded in 24-well plates (1.5×10^5 cells/well). The cells were incubated with increased concentrations of each ^natCu-complexed conjugates (ranging from 0.1 up to 100 nM) in the presence of 0.2 nM [^125I-BA]KuE. After 1 hour incubation on ice, the unbound (free) [^125I-BA]KuE was collected by removing the medium and the cells were detached with NaOH 1 M for counting (bound radioligand). Non-specific binding was defined as the amount of binding activity in the presence of the blocking agent 2-(phosphonomethyl)pentanedioic acid (2-PMPA) in high excess (10 μM).
Quantification of the free and bound radioligand was performed in a gamma-counter. The data were analyzed by GraphPad Prism 9 Software and the IC50 values were determined using the “log(inhibitor) vs response” equation based on the specific binding=total−non-specific binding.
Table 18. IC50 values were determined by competitive assays. […] The results are expressed as means standard deviation (SD) from a minimum of two separate experiments, each in triplicates.

in vivo = conditions: iv, 20 umol, total radioactivity
Procedure: The tumors were allowed to grow for 1-3 weeks before commencement of the experiments.
The mice were randomly distributed in groups and euthanized at 1 and at 4 hours post-injection. The organs of interest were collected, rinsed, blotted, weighed and counted in a gamma counter. The results are expressed as percentage of injected activity per gram (% IA/g), representing the mean±standard deviation of n=4-8 mice per group and they were obtained by extrapolation from counts of an aliquot taken from the injected solution as standard.
The mice were randomly distributed in groups, injected with the radiotracer under investigation and euthanized at 1 and at 4 hours post-injection of the radiotracers under investigation. The organs of interest were collected, rinsed, blotted, weighed and counted in a gamma counter. The results are expressed as percentage of injected activity per gram (% IA/g), representing the mean±standard deviation of all mice per group and they were obtained by extrapolation from counts of an aliquot taken from the injected solution as standard.
The mice were randomly distributed in groups and euthanized at 4 hours post-injection. The organs of interest were collected, rinsed, blotted, weighed, and their respective radioactivity was counted in a gamma counter.

HEK-SST2 xenografts = test: PET/CT imaging in HEK-SST2 xenografted mice; assay type: in vivo; conditions: 0-60 min and 240 min
Procedure: (§1) Tumor xenografted mice were injected intravenously into the tail vein with the tested radiotracer. […] Mice were anesthetized with 1.5% isoflurane and dynamic PET scans were acquired during 1 hour upon injection of the radiotracer. The mice were euthanized by CO2 at 4 hours p.i., the bladder was mechanically emptied, and static PET scans were acquired for 30 min. PET images were acquired using the R-CUBE PET scanner system (MOLECUBES, Gent, Belgium) and they were decay corrected and reconstructed with the VivoQuant software version 4.0. The CT was imaged supine, headfirst, using the NanoSPECT/CT™ scanner (Bioscan Inc.). Topograms and helical CT scans of the whole mouse were first acquired using the following parameters: X-ray tube current: 177 μA, X-ray tube voltage 45 kVp, 90 seconds and 180 frames per rotation, pitch 1. CT images were reconstructed using CTReco (version r1.146), with a standard filtered back projection algorithm (exact cone beam) and post-filtered (RamLak, 100% frequency cut-off), resulting in a pixel size of 0.2 mm. Co-registered PET/CT images were visualized using maximum intensity projection (MIP) with InVivoScope (version 1.43, Bioscan Inc.). The results are presented in the Examples that follow.

PSMA [2] = molecular target: T1, PSMA; test: Specificity study: PET/CT in LNCaP xenografts after blocking with 2-PMPA, and free [61Cu]CuCl2; assay type: in vivo, mice; conditions: PET/CT 1 hour p.i.
Procedure: The specificity of [^61Cu]Cu-NODAGA-PSMA-I&T and [^61Cu]Cu-DOTAGA-PSMA-I&T was assessed in LNCaP xenografted mice, firstly injected with 1.3 μmol (300 μg) of 2-Phosphonomethyl pentanedioic acid (2-PMPA) as the blocking agent, followed by the injection of the radiotracer e.g. [^61Cu]Cu-DOTAGA-PSMA-I&T (100 μL/[…]/4-8 MBq) or [^61Cu]Cu-NODAGA-PSMA-I&T (100 μL/[…]/4-8 MBq). One-hour post injection PET/CT images were acquired as described in Example 8. In addition, PET/CT image of xenografts after injection of [^61Cu]CuCl2 (100 μL/7 MBq) was acquired in order to assess the total body distribution of free (uncomplexed)^61Cu. The results are shown in FIG. 10, panels A and B. L=liver; K=kidneys; T=tumor; Bl=bladder; I=intestine.

LNCaP xenografts [3] = test: Quantitative biodistribution in LNCaP xenografted mice; assay type: in vivo; conditions: LNCaP xenografts
LNCaP cells = test: In vitro cellular uptake (cell surface and internalized fractions) in LNCaP cells; assay type: cell-based; conditions: for Cell surface fraction / Internalized fraction: specific uptake
Procedure: The cellular uptake was studied in vitro using intact cells seeded in 6-well plates overnight. On the day of the experiment, the cells were washed and incubated with each of the exemplified [^61Cu]Cu-radiotracer at different time points, either alone or in the presence of a blocking agent to distinguish between specific and non-specific uptake. At each investigated time point, the medium containing the unbound (free) radiotracer was removed, followed by two washing steps with ice-cold phosphate-buffered saline. The cells were then treated 2×5 min with ice-cold glycine solution (0.05 M, pH 2.8) to detach the cell surface-bound radiotracer (acid released). Afterwards, the cells containing the internalized radiotracer were detached with 1 M NaOH at 37° C. and collected for measurement. The amount of specific cell surface-bound and internalized radiotracer is expressed as percentage of the total applied activity, after subtracting the non-specific values.
2-(phosphonomethyl)-pentanedioic acid (2-PMPA, 10 μM) was used to determine non-specific binding (FIG. 14).
Cellular uptake and distribution between cell surface (cell membrane bound) and internalized fractions of ^61Cu-labeled PSMA-I&T constructs versus their ^68Ga counterparts (Table 19). The values are expressed as % of the applied activity and refer to the specific uptake calculated after subtracting the non-specific values (measured in the presence of 10 μM 2-PMPA) from the total values (specific=total−non specific).

[4] = Lipophilicity, log D by shake-flask method (1-octanol/PBS pH 7.4); assay type: physicochemical; conditions: shake-flask, Table 17, mean ± SD
Procedure: The radiotracer (1 μM) was added to a 50:50 pre-saturated mixture of 1-octanol and phosphate buffered saline (PBSpH 7.4). The solution was vortexed for 30 min and then centrifuged at 3,000 rpm to achieve a phase separation. Aliquots from each phase were collected and measured in a gamma-counter. The distribution coefficient was calculated as the average of the logarithmic values of the ratio between the radioactivity in the organic and the PBS phase.
Table 17. Lipophilicity expressed as the log distribution coefficient D (log D(Octanol/PBS pH7.4)) of ^61Cu-radiotracers versus ^68Ga-radiotracers (reference radiotracers).
In a pre-lubricated Eppendorf tube, a pre-saturated mixture of 500 μL of 1-octanol and 500 μL of PBS pH 7.4 (phosphate-buffered saline) were added. An aliquot of […] in 10 μL of the radioligand was added to this mixture, shaken for 30 min, and then centrifuged at 3000 rcf for 10 min to achieve phase separation. Aliquots of 100 μL were removed from the 1-octanol and from the PBS phases, and the activity was measured in a […]. The partition coefficient was calculated as the average log ratio value of the radioactivity in the organic fraction and PBS fraction.

LNCaP xenografts [5] = test: PET/CT imaging in LNCaP xenografted mice; assay type: in vivo; conditions: LNCaP-xenografted nude mice
Procedure: as §1

T1 sequence (Q04609 whole entry): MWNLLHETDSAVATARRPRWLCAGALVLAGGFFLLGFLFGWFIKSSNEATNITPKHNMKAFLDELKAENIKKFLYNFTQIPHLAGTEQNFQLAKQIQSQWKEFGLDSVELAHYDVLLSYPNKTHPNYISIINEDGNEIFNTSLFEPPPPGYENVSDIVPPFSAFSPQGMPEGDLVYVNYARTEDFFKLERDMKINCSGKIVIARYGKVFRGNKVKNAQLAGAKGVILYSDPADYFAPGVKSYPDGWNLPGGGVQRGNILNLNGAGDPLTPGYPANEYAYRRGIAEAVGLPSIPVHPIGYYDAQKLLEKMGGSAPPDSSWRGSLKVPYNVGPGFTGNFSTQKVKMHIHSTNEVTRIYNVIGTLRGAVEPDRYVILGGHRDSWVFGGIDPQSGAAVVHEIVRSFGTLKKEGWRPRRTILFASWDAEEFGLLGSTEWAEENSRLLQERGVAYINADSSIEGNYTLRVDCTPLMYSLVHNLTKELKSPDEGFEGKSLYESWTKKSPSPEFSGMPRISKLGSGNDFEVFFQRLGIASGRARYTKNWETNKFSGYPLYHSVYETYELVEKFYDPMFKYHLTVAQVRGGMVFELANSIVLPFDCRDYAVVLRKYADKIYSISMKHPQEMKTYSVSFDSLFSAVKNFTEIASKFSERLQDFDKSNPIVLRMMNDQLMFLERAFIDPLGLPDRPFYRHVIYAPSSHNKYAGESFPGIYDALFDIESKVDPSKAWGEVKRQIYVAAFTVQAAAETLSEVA

## O=C([O-])CN1CCN(CC(=O)[O-])CCN([C@H](CCC(=O)N[C@H](Cc2ccc(O)c(I)c2)C(=O)N[C@H](Cc2ccccc2)C(=O)N[C@H](CCCCNC(=O)CCCCCCC(=O)NCCCC[C@H](NC(=O)N[C@@H](CCC(=O)O)C(=O)O)C(=O)O)C(=O)O)C(=O)O)CC1.[Cu+2] [^natCu-NODAGA-PSMA-I&T]
PSMA [1]
  IC50: 9.3 ± 1.8 nM

## O=C([O-])CN1CCN(CC(=O)[O-])CCN(C(CCC(=O)N[C@H](Cc2ccc(O)c(I)c2)C(=O)N[C@H](Cc2ccccc2)C(=O)N[C@H](CCCCNC(=O)CCCCCCC(=O)NCCCC[C@H](NC(=O)N[C@@H](CCC(=O)O)C(=O)O)C(=O)O)C(=O)O)C(=O)O)CCN(CC(=O)O)CC1.[Cu+2] (stereo partly drawn) [^natCu-DOTAGA-PSMA-I&T, reference compound]
PSMA [1]
  IC50: 11.2 ± 2.3 nM

## C[C@@H](O)[C@@H]1NC(=O)[C@H](CCCCN)NC(=O)[C@@H](Cc2ccc(NC(N)=O)cc2)NC(=O)[C@H](Cc2ccc(O)cc2)NC(=O)[C@H](NC(=O)[C@H](Cc2ccc(Cl)cc2)NC(=O)CC[C@H](C(=O)O)N2CCN(CC(=O)O)CCN(CC(=O)O)CC2)CSSC[C@@H](C(=O)N[C@H](Cc2ccc(O)cc2)C(N)=O)NC1=O [[^61Cu]Cu-(R)-NODAGA-LM3, metal not drawn]
In vivo; athymic nude Foxn1+Foxn1+, mouse, Biodistribution Adrenal
  tissue uptake at 4 h: 0.61 ± 0.18 %ID/g
In vivo; athymic nude Foxn1+Foxn1+, mouse, Biodistribution Blood
  tissue uptake at 4 h: 0.1 ± 0.01 %ID/g
In vivo; athymic nude Foxn1+Foxn1+, mouse, Biodistribution Heart
  tissue uptake at 4 h: 0.17 ± 0.02 %ID/g
In vivo; athymic nude Foxn1+Foxn1+, mouse, Biodistribution Intestine
  tissue uptake at 4 h: 0.58 ± 0.13 %ID/g
In vivo; athymic nude Foxn1+Foxn1+, mouse, Biodistribution Liver
  tissue uptake at 4 h: 0.73 ± 0.06 %ID/g
In vivo; athymic nude Foxn1+Foxn1+, mouse, Biodistribution Lung
  tissue uptake at 4 h: 0.42 ± 0.05 %ID/g
In vivo; athymic nude Foxn1+Foxn1+, mouse, Biodistribution Pancreas
  tissue uptake at 4 h: 0.44 ± 0.24 %ID/g
In vivo; athymic nude Foxn1+Foxn1+, mouse, Biodistribution Spleen
  tissue uptake at 4 h: 0.17 ± 0.02 %ID/g
In vivo; athymic nude Foxn1+Foxn1+, mouse, Biodistribution Stomach
  tissue uptake at 4 h: 0.78 ± 0.14 %ID/g
In vivo; athymic nude Foxn1, mouse, Biodistribution Bone
  tissue uptake at 4 h: 0.42 ± 0.12 %ID/g
In vivo; athymic nude Foxn1, mouse, Biodistribution Kidneys
  tissue uptake at 4 h: 3.87 ± 0.51 %ID/g
In vivo; athymic nude Foxn1, mouse, Biodistribution Muscle
  tissue uptake at 4 h: 0.1 ± 0.02 %ID/g
In vivo; athymic nude Foxn1, mouse, Biodistribution Pituitary
  tissue uptake at 4 h: 3.64 ± 0.31 %ID/g
In vivo; athymic nude Foxn1, mouse, Biodistribution SSTR2-tumor
  tissue uptake at 4 h: 19 ± 2.11 %ID/g
HEK-SST2 xenografts
  distribution pattern on PET/CT: same distribution pattern

## O=C([O-])CN1CCN(CC(=O)[O-])CCN(C(CCC(=O)N[C@H](Cc2ccc(O)c(I)c2)C(=O)N[C@H](Cc2ccccc2)C(=O)N[C@H](CCCCNC(=O)CCCCCCC(=O)NCCCC[C@H](NC(=O)N[C@@H](CCC(=O)O)C(=O)O)C(=O)O)C(=O)O)C(=O)O)CCN(CC(=O)O)CC1.[61Cu+2] (stereo partly drawn) [[^61Cu]Cu-DOTAGA-PSMA-I&T]
PSMA [2]
  uptake in PSMA-positive tumors and kidneys in xenografts pre-injected with 2-PMPA: significantly lower uptake
LNCaP xenografts [3]; 1 hour p.i.
  Biodistribution Adrenal: 9.35 ± 1.50 % IA/g
  Biodistribution Blood: 2.06 ± 0.24 % IA/g
  Biodistribution Bone: 2.31 ± 0.36 % IA/g
  Biodistribution Heart: 3.73 ± 0.32 % IA/g
  Biodistribution Intestine: 8.95 ± 0.62 % IA/g
  Biodistribution Kidneys: 57 ± 6 % IA/g
  Biodistribution LNCaP-tumor: 6.06 ± 0.25 % IA/g
  Biodistribution Liver: 19.3 ± 3.3 % IA/g
  Biodistribution Lung: 6.35 ± 0.35 % IA/g
  Biodistribution Muscle: 1.00 ± 0.05 % IA/g
  Biodistribution Pancreas: 2.82 ± 0.67 % IA/g
  Biodistribution Salivary glands: 5.60 ± 1.39 % IA/g
  Biodistribution Spleen: 4.64 ± 1.35 % IA/g
  Biodistribution Stomach: 7.77 ± 0.62 % IA/g
  Ratio Tumor/Blood: 2.97 ± 0.23
  Ratio Tumor/Kidney: 0.11 ± 0.01
  Ratio Tumor/Liver: 0.32 ± 0.05
  Ratio Tumor/Muscles: 6.08 ± 0.22
LNCaP xenografts [3]; 4 hours p.i.
  Biodistribution Adrenal: 6.46 ± 2.38 % IA/g
  Biodistribution Blood: 1.12 ± 0.24 % IA/g
  Biodistribution Bone: 1.69 ± 0.25 % IA/g
  Biodistribution Heart: 2.08 ± 0.33 % IA/g
  Biodistribution Intestine: 7.74 ± 1.76 % IA/g
  Biodistribution Kidneys: 22.1 ± 2.2 % IA/g
  Biodistribution LNCaP-tumor: 4.88 ± 0.63 % IA/g
  Biodistribution Liver: 13.9 ± 2.2 % IA/g
  Biodistribution Lung: 4.67 ± 0.76 % IA/g
  Biodistribution Muscle: 0.48 ± 0.08 % IA/g
  Biodistribution Pancreas: 1.71 ± 0.23 % IA/g
  Biodistribution Salivary glands: 2.31 ± 0.19 % IA/g
  Biodistribution Spleen: 2.95 ± 0.73 % IA/g
  Biodistribution Stomach: 7.10 ± 0.97 % IA/g
  Ratio Tumor/Blood: 4.56 ± 1.49
  Ratio Tumor/Kidney: 0.22 ± 0.04
  Ratio Tumor/Liver: 0.35 ± 0.05
  Ratio Tumor/Muscles: 10.5 ± 2.8
LNCaP xenografts [3]
  accumulation in tumor and target-positive tissues: high accumulation in PSMA-positive (LNCaP) tumor and PSMA-positive tissues
LNCaP cells; 5 min
  Cell surface fraction: 3.7 ± 0.5 % of the applied activity
  Internalized fraction: 0.7 ± 0.1 % of the applied activity
LNCaP cells; 15 min
  Cell surface fraction: 8.1 ± 0.7 % of the applied activity
  Internalized fraction: 2.8 ± 0.2 % of the applied activity
LNCaP cells; 30 min
  Cell surface fraction: 11.6 ± 1.0 % of the applied activity
  Internalized fraction: 6.2 ± 0.5 % of the applied activity
LNCaP cells; 60 min
  Cell surface fraction: 13.4 ± 0.8 % of the applied activity
  Internalized fraction: 13.3 ± 0.5 % of the applied activity
LNCaP cells; 120 min
  Cell surface fraction: 14.7 ± 1.0 % of the applied activity
  Internalized fraction: 21.3 ± 0.9 % of the applied activity
LNCaP cells; after 2h at 37° C.
  PSMA-mediated cellular uptake: approx. 35%
  part of the cellular uptake being internalized: 50-60%
[4]
  log D(O/PBS pH 7.4): −2.69±0.44
LNCaP xenografts [5]
  distribution on PET/CT images: lower tumor, but also lower kidney uptake
